{"source": "patent US20090233326A1", "about": "“METHOD FOR INDUCTION OF THE DIFFERENTIATION OF VISCERAL FAT CELL” (priority 2006, published 2009)", "format_in_all_cases": "cell-based, rat", "key": {"[1]": {"system": "VSC (visceral stromal cells=preadipocytes)", "assay": "Induction of VSC-to-VAC differentiation (lipid droplet formation, photographs after culture)", "quoted_text": "Mesenteric fat tissue was excised from the abdominal cavity of 3-5 week old male Sprague-Dawley rats (average body weight=100 g) and was washed three times with Hanks' balanced salt solution. The fat was minced with scissors and then incubated for 40 minutes at 37° C. in DMEM/F-12 culture medium containing 0.2% collagenase and 1.0% bovine albumin. The collagenase-digested tissue suspension was subsequently filtered through 600 μm mesh and Hanks' balanced salt solution was added. After centrifugation for 10 minutes at 800×g, the sediment was washed three times with Hanks' balanced salt solution and once with DMEM/F-12 culture medium and was then filtered through 100 μm mesh. The cell suspension thus prepared from the intraabdominal mesenteric fat was seeded to dishes at 0.5×10^5 cells/cm^2, and incubated at 37° C. and 5% CO2 in the culture medium with the indicated composition. The culture medium was changed once a day or once every two days. The culture medium was prepared by the addition of 17 mM pantothenic acid, 33 mM biotin, 100 mM ascorbic acid, 1 mM octanoic acid, 50 nM triiodothyronine, 100 unit/mL penicillin, and 100 mg/mL streptomycin to a basal culture medium of (DMEM)/F12 containing 10% NCS. Insulin and IGF-1 were added in the specified concentrations, and the resulting culture medium was used in the experiments described below."}, "[2]": {"system": "aP2 mRNA", "assay": "aP2 mRNA expression by real-time PCR", "description": "(§1) Differentiation conditions 1 to 12 in FIG. 2A correspond to the 1 to 12 in FIGS. 2B, 2C, and 2D (B: photographs after culture for 7 days; C: mRNA was separated after culture for 7 days, and the level of C/EBPα mRNA expression was measured by real-time PCR (the value on day 0 of culture was set at 1); D: the level of aP2 mRNA expression was measured by real-time PCR (the value on day 7 of culture for condition 1 was set at 1)).\n(§2) A continuous 7-day culture was carried out in a culture medium containing 200 ng/mL IGF-1 (normal concentration in human blood=150 to 250 ng/mL), and the amount of mRNA expression was then measured for C/EBPα (adipocyte differentiation marker), aP2 (adipocyte differentiation marker), and C/EBPβ (differentiation marker for undifferentiated adipocytes). The results are shown in FIG. 5 (A: photographs after culture for 7 days. 1: cultured with 200 ng/mL IGF-1 for 3 days and then with 22 ng/mL insulin for 4 days. 2: cultured with 200 ng/mL IGF-1 and 22 ng/mL insulin for 7 days. 3: cultured with 200 ng/mL IGF-1 for 7 days. The 1 to 3 corresponds to lanes 1 to 3 in FIGS. 5B to 5D. B: mRNA was separated after the 7-day culture and the amount of C/EBPα mRNA expression was measured by real-time PCR. The value for a culture of 3 days with 10 μg/mL insulin and then 4 days with 22 ng/mL insulin was set at 1. C: mRNA was separated after the 7-day culture and the amount of aP2 mRNA expression was measured by real-time PCR. The value for a culture of 3 days with 10 μg/mL insulin and then 4 days with 22 ng/mL insulin was set at 1. D: mRNA was separated after the 7-day culture and the amount of C/EBPβ mRNA expression was measured by real-time PCR. The value for a culture of 3 days with 10 μg/mL insulin and then 4 days with 22 ng/mL insulin was set at 1.).\nThe influence of various combinations of IGF-1 and insulin on VAC differentiation induction and maturation was investigated. The results are shown in FIG. 6 (A: photographs after culture for 7 days. 1: cultured with 200 ng/mL IGF-1 for 3 days and then with 2.5 ng/mL insulin for 4 days. 2: cultured with 200 ng/mL IGF-1 and 2.5 ng/mL insulin for 7 days. 3: cultured with 200 ng/mL IGF-1 for 3 days and then with 0.85 ng/mL insulin for 4 days. 4: cultured with 200 ng/mL IGF-1 and 0.85 ng/mL insulin for 7 days. B: mRNA was separated after the 7-day culture and the amount of C/EBPβ mRNA expression was measured by real-time PCR. The value for a culture of 3 days with 10 μg/mL insulin and then 4 days with 22 ng/mL insulin was set at 1. C: mRNA was separated after the 7-day culture and the amount of aP2 mRNA expression was measured by real-time PCR. The value for a culture of 3 days with 10 μg/mL insulin and then 4 days with 22 ng/mL insulin was set at 1.)."}, "[3]": {"system": "C/EBPα mRNA", "assay": "C/EBPα mRNA expression by real-time PCR", "description": "as §1, §2\nAdditional investigations were then carried out into the IGF-1 concentration required for differentiation. Proceeding in the same manner as described above, VSCs were cultured for 7 days in the presence of 0.85 ng/mL insulin and IGF-1 at different concentrations. After culturing, mRNA was separated and the amount of C/EBPα mRNA expression was measured by real-time PCR. After culture for 7 days, mRNA was separated and the amount of C/EBPα mRNA expression and the amount of C/EBPβ mRNA expression were measured by real-time PCR. The value for the amount of mRNA expression for culture with 10 μg/mL insulin for 3 days followed by with 22 ng/mL insulin for 4 days was set at 1."}, "[4]": {"system": "C/EBPβ mRNA", "assay": "C/EBPβ mRNA expression by real-time PCR", "description": "as §2, with “real-time PCR. […] D: mRNA” for “real-time PCR. The value for a culture of 3 days with 10 μg/mL insulin and then 4 days with 22 ng/mL insulin was set at 1. D: mRNA”, “real-time PCR. […]” for “real-time PCR. The value for a culture of 3 days with 10 μg/mL insulin and then 4 days with 22 ng/mL insulin was set at 1.).”\nThe influence of various combinations of IGF-1 and insulin on VAC differentiation induction and maturation was investigated. […] C: mRNA was separated after the 7-day culture and the amount of aP2 mRNA expression was measured by real-time PCR. […]"}, "[5]": {"system": "insulin receptor", "assay": "Insulin receptor expression by immunoblotting with anti-IR antibody", "description": "The amount of insulin receptor expression in the maturation process was then examined (FIG. 4). After the VSCs had been cultured for 7, 8, or 9 days, the total cell lysate (20 μg protein) was separated by SDS-PAGE and the IR was detected by immunoblotting with anti-IR antibody. In addition, actin was detected by immunoblotting with anti-actin antibody as the loading control. […] VSCs were cultured for 3 days in the presence of 10 μg/mL insulin or 200 ng/mL IGF-1, after which the total cell lysate (20 μg protein) was separated by SDS-PAGE and the insulin receptor was detected by immunoblotting with anti-insulin receptor (IR) antibody. Actin was detected by immunoblotting with anti-actin antibody as a loading control. […] After culture for 7 days, the total cell lysate (20 μg protein) was separated by SDS-PAGE and the IR was determined by immunoblotting with anti-IR antibody. Actin was detected by immunoblotting with anti-actin antibody as a loading control."}, "[6]": {"system": "adiponectin mRNA", "assay": "Adiponectin mRNA expression by real-time PCR", "description": "The level of adiponectin mRNA expression was then examined with the aim of investigating the influence of the insulin concentration on VAC function (FIG. 3). After the VSCs had been differentiated by 10 μg/mL insulin for 3 days, they were then cultured for 4 days in the presence of 10 μg/mL insulin (lane 2), 0.2 μg/mL insulin (lane 3), 70 ng/mL insulin (lane 4), 22 ng/mL insulin (lane 5), or 7.4 ng/mL insulin (lane 6). After the 7-day culture, mRNA was separated and the amount of adiponectin mRNA expression was measured by real-time PCR. The value for the 7-day culture in the absence of insulin was set at 1. The results are shown in FIG. 3 (1: cultured for 7 days without insulin. 2: cultured for 7 days with 10 μg/mL insulin. 3: induction of differentiation for 3 days with 10 μg/mL insulin followed by culture for 4 days with 0.2 μg/mL insulin. 4: induction of differentiation for 3 days with 10 μg/mL insulin followed by culture for 4 days with 70 ng/mL insulin. 5: induction of differentiation for 3 days with 10 μg/mL insulin followed by culture for 4 days with 22 ng/mL insulin. 6: induction of differentiation for 3 days with 10 μg/mL insulin followed by culture for 4 days with 7.4 ng/mL insulin.)."}, "[7]": {"system": "adiponectin", "assay": "Adiponectin content of the culture medium (ELISA)", "description": "The conventionally used dexamethasone-based differentiation induction system was first evaluated. 2.5 μM dexamethasone and 10 μg/mL insulin or 10 μg/mL insulin was added to the medium to allow for VSC differentiation and maturation for 7 days. […] When dexamethasone was also added to the differentiation induction culture medium, single cell enlargement was promoted (FIG. 1B), although there was no difference in the differentiation efficiency. In addition, the norepinephrine-induced triglyceride degradation reaction was reduced (data not shown).\nAfter 9-day culture with 200 ng/mL IGF-1 and different insulin concentrations, the culture medium was taken and the adiponectin content was measured by ELISA. When VSCs were cultured for 9 days with the constant presence of 200 ng/mL IGF-1 and insulin at a concentration of 10 μg/mL (lane 1), 70 ng/mL (lane 2), 22 ng/mL (lane 3), or 2.5 ng/mL (lane 4), the amount of adiponectin secretion was reduced at insulin concentrations of 70 ng/mL and above (FIG. 9A). When VSCs were cultured for the first 4 days with 200 ng/mL IGF-1 and 2.5 ng/mL insulin followed by 5 days with 200 ng/mL IGF-1 and insulin at a concentration of 10 μg/mL (lane 1), 70 ng/mL (lane 2), 22 ng/mL (lane 3), or 2.5 ng/mL (lane 4), adiponectin secretion was again reduced at insulin concentrations of 70 ng/mL and above (FIG. 9B). […]"}, "[8]": {"conditions": "7-day culture with only IGF-1 (200 ng/mL), vs 10 μg/mL insulin then 22 ng/mL insulin"}}}
{"substance": "insulin-like growth factor-1 [IGF-1]", "values": [{"measurement": "accumulation of lipid droplets", "setting": "[1]; 200 ng/mL IGF-1 alone, 7 days", "value": "not seen"}, {"measurement": "differentiation efficiency", "setting": "[1]; IGF-1 concentrations of 50 ng/mL and below, plus 0.85 ng/mL insulin, 7 days", "value": "decline"}, {"measurement": "expression of aP2 mRNA", "setting": "[2]; [8]", "value": "increased"}, {"measurement": "expression of C/EBPα mRNA", "setting": "[3]; [8]", "value": "increased"}, {"measurement": "amount of C/EBPα mRNA expression", "setting": "[3]; as a function of the IGF-1 concentration (10 to 800 ng/mL) plus 0.85 ng/mL insulin, 7 days", "value": "no changes"}, {"measurement": "amount of C/EBPβ mRNA", "setting": "[4]; 7-day culture with IGF-1 alone (200 ng/mL; FIG. 5D, lane 3)", "value": "maintained"}, {"measurement": "amount of C/EBPβ mRNA expression", "setting": "[4]; IGF-1 concentrations of 50 ng/mL or less vs 200 ng/mL IGF-1, plus 0.85 ng/mL insulin, 7 days", "value": "increased amounts of expression"}]}
{"substance": "insulin", "values": [{"measurement": "amount of insulin receptor expression", "setting": "[5]; 3-day induction with 10 μg/mL insulin vs 200 ng/mL IGF-1 or 200 ng/mL IGF-1 and 22 ng/mL insulin", "value": "decline"}, {"measurement": "insulin receptor expression", "setting": "[5]; 3 days 10 μg/mL insulin, maturation with 22 ng/mL, then culture with insulin at 70 ng/mL or greater vs 22 ng/mL, 7, 8 or 9 days", "value": "substantial decline"}, {"measurement": "level of adiponectin mRNA expression", "setting": "[6]; 10 μg/mL insulin for 3 days then 4 days 7.4 ng/mL insulin (lane 6)", "value": "reduced"}, {"measurement": "level of adiponectin mRNA expression", "setting": "[6]; 7-day culture with 10 μg/mL insulin (lane 2) vs 3 days 10 μg/mL then 4 days 0.2 μg/mL to 22 ng/mL (lanes 3 to 5)", "value": "lower level"}, {"measurement": "lipid droplet formation", "setting": "[1]; 0.2 μg/mL insulin, 7 days (condition 3)", "value": "entirely absent"}, {"measurement": "lipid droplet accumulation", "setting": "[1]; 10 μg/mL insulin for 2 days followed by 0.2 μg/mL insulin, total of 7 days (condition 5)", "value": "significant decline"}, {"measurement": "lipid droplet formation", "setting": "[1]; 10 μg/mL insulin for 3 days, then insulin reduced to 22 ng/mL (condition 11)", "value": "same level"}, {"measurement": "differentiation into adipocytes (lipid droplets)", "setting": "[1]; 10 μg/mL insulin, 7 days (condition 2)", "value": "differentiation into adipocytes occurred"}, {"measurement": "fat accumulation", "setting": "[1]; 10 μg/mL insulin, VSC differentiation and maturation for 7 days", "value": "normal fat accumulation"}, {"measurement": "lipid droplet accumulation", "setting": "[1]; 3-day treatment with 10 μg/mL insulin without the ensuing 0.2 μg/mL insulin, vs system containing 0.2 μg/mL insulin", "value": "significant decline"}, {"measurement": "aP2 mRNA expression level", "setting": "[2]; 10 μg/mL insulin for 3 days, then at least 22 ng/mL insulin (condition 11), vs constant 10 μg/mL insulin", "value": "the same level"}, {"measurement": "aP2 mRNA expression level", "setting": "[2]; 10 μg/mL insulin for 3 days, then insulin at or below 7.4 ng/mL (condition 12), vs constant 10 μg/mL insulin", "value": "less aP2 expression"}, {"measurement": "aP2 mRNA expression level", "setting": "[2]; 10 μg/mL insulin for only 2 days (condition 5), vs constant 10 μg/mL insulin", "value": "less aP2 expression"}, {"measurement": "aP2 mRNA expression level", "setting": "[2]; constant presence of 0.2 μg/mL insulin, vs constant 10 μg/mL insulin (condition 2)", "value": "less aP2 expression"}, {"measurement": "C/EBPα mRNA expression level", "setting": "[3]; 10 μg/mL insulin for 2 days (conditions 4 and 5), 7 days", "value": "did not increase"}, {"measurement": "C/EBPα mRNA expression level", "setting": "[3]; 10 μg/mL insulin for only 3 days followed by absence of insulin for 4 days (condition 6)", "value": "did rise"}, {"measurement": "C/EBPα mRNA expression level", "setting": "[3]; constant presence of 0.2 μg/mL insulin (condition 3), 7 days", "value": "did not increase"}, {"measurement": "adiponectin secretion", "setting": "[7]; 4 days 200 ng/mL IGF-1 and 2.5 ng/mL insulin, then 5 days 200 ng/mL IGF-1 and insulin at 70 ng/mL and above", "value": "again reduced"}, {"measurement": "amount of adiponectin secretion", "setting": "[7]; 9 days, constant 200 ng/mL IGF-1 and insulin at 70 ng/mL and above (vs 22 or 2.5 ng/mL)", "value": "reduced"}]}
